# Source: ChEMBL document CHEMBL1201862, “PubChem BioAssay data set” (2004)
# Active and inactive are the calls of the source.
# What was measured:
# [1] = cytotoxicity in HEK-293T cells, dose response, cytotoxicity control for BCR NF-kB inhibitor project, luminescence, B-cell screen hits (AID 489021); type: functional, cell-based;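 further: HEK-293T cells carrying an NF-kB luciferase reporter; cells exposed to compound for about 14 hours before viability readout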
# [2] = target: T1, Aminopeptidase N (Plasmodium falciparum FcB1/Columbia, UniProt O96935); test: P. falciparum M1AAP inhibitors, biochemical, fluorogenic H-Leu-NHMec substrate, 1536-well (AID 1445); set-up: species or system Plasmodium falciparum 3D7, 3D7
# T1 sequence (O96935 whole entry): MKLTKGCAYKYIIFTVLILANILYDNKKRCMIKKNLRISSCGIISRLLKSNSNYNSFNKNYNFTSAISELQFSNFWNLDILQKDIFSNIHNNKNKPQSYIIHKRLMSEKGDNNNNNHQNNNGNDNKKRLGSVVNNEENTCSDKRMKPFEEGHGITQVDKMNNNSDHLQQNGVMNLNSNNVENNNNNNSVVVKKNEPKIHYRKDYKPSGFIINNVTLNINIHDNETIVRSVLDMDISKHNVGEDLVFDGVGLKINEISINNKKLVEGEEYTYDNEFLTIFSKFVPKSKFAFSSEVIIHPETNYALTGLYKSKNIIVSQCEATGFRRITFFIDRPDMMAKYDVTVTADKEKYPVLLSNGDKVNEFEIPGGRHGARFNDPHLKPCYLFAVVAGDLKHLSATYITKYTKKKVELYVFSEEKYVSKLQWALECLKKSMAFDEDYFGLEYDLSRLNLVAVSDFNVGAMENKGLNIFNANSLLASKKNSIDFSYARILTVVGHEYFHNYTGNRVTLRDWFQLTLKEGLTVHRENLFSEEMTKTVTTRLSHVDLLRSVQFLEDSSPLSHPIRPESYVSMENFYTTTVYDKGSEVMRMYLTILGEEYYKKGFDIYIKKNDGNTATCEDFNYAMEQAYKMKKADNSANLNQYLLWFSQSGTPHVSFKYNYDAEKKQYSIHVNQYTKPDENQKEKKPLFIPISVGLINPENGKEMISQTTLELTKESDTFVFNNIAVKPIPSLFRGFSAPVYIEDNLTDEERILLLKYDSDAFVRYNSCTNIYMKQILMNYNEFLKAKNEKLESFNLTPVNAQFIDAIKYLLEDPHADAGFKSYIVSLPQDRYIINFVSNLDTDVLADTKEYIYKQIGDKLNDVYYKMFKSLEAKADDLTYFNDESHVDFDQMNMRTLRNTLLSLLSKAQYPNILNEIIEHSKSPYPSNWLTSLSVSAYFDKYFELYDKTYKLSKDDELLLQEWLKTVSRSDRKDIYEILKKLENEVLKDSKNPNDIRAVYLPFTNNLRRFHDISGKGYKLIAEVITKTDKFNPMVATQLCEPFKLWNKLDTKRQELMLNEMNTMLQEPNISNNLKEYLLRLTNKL
# [3] = system: INS1; test: beta cell apoptosis inhibitors, cytokine rescue, dose response, luminescence, retest (AID 449756); type: functional, cell-based; conditions: Rattus norvegicus;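 further: cell death triggered by IL-1 beta plus TNF-alpha plus IFN-gamma mixture; protective hits raise ATP signal compared with cytokine alone wells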
# [4] = target: T2, Microphthalmia-associated transcription factor (Homo sapiens, UniProt O75030); test: TRPM1 promoter luciferase signal decrease, dose response, MITF inhibitor project, cell-based, SK-MEL-5, cherry-picked, set 3 (AID 493073); type: functional
# T2 sequence (O75030 whole entry): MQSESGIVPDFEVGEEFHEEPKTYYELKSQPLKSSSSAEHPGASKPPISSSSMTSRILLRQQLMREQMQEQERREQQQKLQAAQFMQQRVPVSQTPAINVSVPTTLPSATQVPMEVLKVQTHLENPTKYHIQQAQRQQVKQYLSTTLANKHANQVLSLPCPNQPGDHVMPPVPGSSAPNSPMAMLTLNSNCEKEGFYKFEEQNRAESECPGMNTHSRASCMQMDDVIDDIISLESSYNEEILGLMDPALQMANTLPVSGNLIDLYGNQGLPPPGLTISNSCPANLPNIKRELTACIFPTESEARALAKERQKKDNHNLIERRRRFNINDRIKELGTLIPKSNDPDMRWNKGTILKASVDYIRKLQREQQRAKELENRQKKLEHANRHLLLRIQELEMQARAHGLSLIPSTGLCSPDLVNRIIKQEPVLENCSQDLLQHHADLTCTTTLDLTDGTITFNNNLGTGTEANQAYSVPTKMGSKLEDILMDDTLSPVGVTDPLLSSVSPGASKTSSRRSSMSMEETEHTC
# [5] = target: T3, Leucine aminopeptidase (Plasmodium falciparum 3D7, UniProt Q8IL11); test: P. falciparum M17LAP inhibitors, primary screen, biochemical, fluorogenic H-Leu-NHMec substrate, 1536-well (AID 1619); type: functional
# T3 sequence (Q8IL11 whole entry): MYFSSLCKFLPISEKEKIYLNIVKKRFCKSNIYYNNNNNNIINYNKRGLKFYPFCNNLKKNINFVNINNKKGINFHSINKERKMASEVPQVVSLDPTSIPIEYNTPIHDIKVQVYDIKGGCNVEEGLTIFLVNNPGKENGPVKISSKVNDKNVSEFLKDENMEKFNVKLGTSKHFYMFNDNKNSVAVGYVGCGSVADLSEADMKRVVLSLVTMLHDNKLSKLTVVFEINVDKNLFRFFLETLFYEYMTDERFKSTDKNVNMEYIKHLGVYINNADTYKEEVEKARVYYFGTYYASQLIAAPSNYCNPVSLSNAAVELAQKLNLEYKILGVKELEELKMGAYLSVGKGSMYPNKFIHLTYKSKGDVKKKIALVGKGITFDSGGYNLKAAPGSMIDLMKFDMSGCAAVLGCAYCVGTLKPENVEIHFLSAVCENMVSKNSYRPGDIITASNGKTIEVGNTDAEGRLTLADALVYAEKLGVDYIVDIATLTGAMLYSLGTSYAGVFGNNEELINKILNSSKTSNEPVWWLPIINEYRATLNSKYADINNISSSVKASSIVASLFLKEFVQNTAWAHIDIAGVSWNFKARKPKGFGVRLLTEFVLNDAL
# [6] = Luminescence Cell-Based Dose Confirmation HTS to Identify Inhibitors of Platelet Dense Granule Release. [Related pubchem assays: 1663 (Primary HTS), 1678 (Summary of Project)]; type: functional
# [7] = target: Luciferin 4-monooxygenase (Photinus pyralis, UniProt P08659); test: firefly luciferase enzyme inhibitors, dose response, biochemical, luminescence (AID 1891)
# Sequence of Luciferin 4-monooxygenase (P08659 whole entry): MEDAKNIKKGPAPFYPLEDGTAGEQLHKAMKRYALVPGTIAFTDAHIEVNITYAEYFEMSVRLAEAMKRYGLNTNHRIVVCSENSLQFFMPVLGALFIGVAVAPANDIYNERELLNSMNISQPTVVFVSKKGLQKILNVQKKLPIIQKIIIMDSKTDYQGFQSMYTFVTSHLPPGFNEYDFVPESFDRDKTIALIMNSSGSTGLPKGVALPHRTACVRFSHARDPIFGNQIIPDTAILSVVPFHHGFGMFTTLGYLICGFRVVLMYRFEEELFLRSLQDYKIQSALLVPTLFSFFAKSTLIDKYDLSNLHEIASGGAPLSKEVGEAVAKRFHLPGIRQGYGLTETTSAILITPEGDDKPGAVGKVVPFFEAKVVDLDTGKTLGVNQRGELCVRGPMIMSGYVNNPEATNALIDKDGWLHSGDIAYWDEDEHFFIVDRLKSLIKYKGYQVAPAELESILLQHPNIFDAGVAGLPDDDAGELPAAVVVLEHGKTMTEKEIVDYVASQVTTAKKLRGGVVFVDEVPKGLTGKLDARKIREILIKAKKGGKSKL
# [8] = target: T4, Short transient receptor potential channel 4 (Mus musculus, UniProt Q9QUQ5); test: mouse TRPC4 channel inhibitors, dose response, cell-based, HEK293 TRPC4/mu-opioid, Fluo-4 calcium (AID 434942); type: functional;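 further: potency of inhibitors blocking the TRPC4 calcium response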
# T4 sequence (Q9QUQ5 whole entry): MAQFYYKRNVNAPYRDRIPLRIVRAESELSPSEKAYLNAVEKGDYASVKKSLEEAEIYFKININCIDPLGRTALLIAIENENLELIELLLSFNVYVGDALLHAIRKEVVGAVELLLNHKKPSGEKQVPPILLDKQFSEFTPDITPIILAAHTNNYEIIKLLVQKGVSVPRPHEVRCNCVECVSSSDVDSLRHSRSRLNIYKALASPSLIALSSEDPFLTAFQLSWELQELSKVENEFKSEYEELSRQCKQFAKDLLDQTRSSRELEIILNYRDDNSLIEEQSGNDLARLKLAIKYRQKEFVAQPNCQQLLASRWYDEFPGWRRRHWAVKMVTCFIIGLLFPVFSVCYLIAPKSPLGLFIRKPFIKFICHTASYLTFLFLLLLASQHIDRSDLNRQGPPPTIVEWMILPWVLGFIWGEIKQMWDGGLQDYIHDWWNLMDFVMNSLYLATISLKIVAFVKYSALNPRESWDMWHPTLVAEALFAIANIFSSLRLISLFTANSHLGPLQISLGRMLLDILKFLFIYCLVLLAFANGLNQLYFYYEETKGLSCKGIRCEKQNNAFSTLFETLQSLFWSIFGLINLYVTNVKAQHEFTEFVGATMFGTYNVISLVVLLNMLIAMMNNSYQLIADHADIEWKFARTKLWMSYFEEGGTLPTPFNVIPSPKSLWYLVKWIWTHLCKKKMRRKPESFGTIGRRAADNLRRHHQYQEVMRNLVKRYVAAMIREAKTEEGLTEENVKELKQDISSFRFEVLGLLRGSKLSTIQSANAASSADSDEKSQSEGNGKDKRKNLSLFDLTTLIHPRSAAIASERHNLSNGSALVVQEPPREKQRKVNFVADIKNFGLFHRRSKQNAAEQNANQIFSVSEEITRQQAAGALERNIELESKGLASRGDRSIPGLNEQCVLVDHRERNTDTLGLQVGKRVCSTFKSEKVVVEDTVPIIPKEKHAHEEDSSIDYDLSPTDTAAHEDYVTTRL
# [9] = system: HEK293; test: inhibitors of LMP1-driven NF-kB reporter, dose response, cell-based, HEK293, luciferase, cherry-pick (AID 588343); type: functional; conditions: Homo sapiens
# [10] = cells; type: functional
smiles,measurement,setting,value
CCCN1C(=O)/C(=C/c2c(N3CCNC(=O)C3CC(=O)OCC)nc3c(C)cccn3c2=O)SC1=S (stereo not given),IC50,[1],50 µM (inactive)
same,IC50,[2],34.1 µM (active)
Cc1ccc(-c2c[n+](-c3ccc(SC(F)F)cc3)c3n2CCC3)cc1,AC50,[3],5.09 µM (active)
same,AC50,[4],1.64 µM (active)
O=C(O)c1ccc(N=Nc2c(O)[nH]c3ccccc23)cc1,IC50,[5],84.3 µM (active)
same,EC50,[6],937 nM (active)
same,EC50,[7],365 nM (active)
O=C(CN1CCN(Cc2ccccc2Cl)CC1)N=Nc1c(O)[nH]c2ccccc12,EC50,[8],0.376 µM (active)
O=C(/C=C/Nc1cccc(C(F)(F)F)c1)C(F)(F)F,AC50,[9],> 350 µM (inactive)
CCOc1cc(C2C3=C(CCCC3=O)OC3=C2C(=O)CCC3)cc([N+](=O)[O-])c1O,IC50,[2],46.3 µM (active)
CC(=O)OC1(c2ccccc2)CCN(C2CCCCC2)CC1C (stereo not given),EC50,[8],1.06 µM (active)
COc1ccccc1N1CCN(C(=O)CCC(=O)N2CCN(c3ccc(F)cc3)CC2)CC1,AC50,[9],186 µM (active)
CCOc1ccc(NC(=O)CCC(=O)N/N=C/c2ccc([N+](=O)[O-])s2)cc1,AC50,[4],6.21 µM (active)
same,IC50,[10],13.6 µM (active)
Cc1ccc(C)c2nc(O)c(CN(CC3CCCO3)C(S)=NCc3ccco3)cc12 (stereo not given),EC50,[8],2.11 µM (active)
